Experimental data reported in patent US7253175B2, “Method for treating athlete's foot” (priority 2003, dated 2007).
Counter-ions that a name gives are not always drawn.

Tested on: athlete's foot (fungal infection of toe nails and skin of the feet)
Assay: Treatment of a patient with athlete's foot (case example)
Type: in vivo, human
Description: Fungal infections, including tineapedis (fungal infections on the feet), tineamanus (fungal infections on the hands) and tineacorporis (fungal infections on the body), are diagnosed by methods or tests commonly conducted by a person of ordinary skill in the art. The common symptoms of such disease are described above. In the case of fungal infection on nails such as finger nails and toenails, the infected areas usually show thickening of the nails with white spots, while if the skin is infected, itching scaling, redness and/or blisters will appear. A laboratory test may be conducted by culturing a skin sample or nail sample in the infected area in an appropriate medium to observe the growth of fungi. The infections may also be identified by scraping the infected skin or nail and examining the such specimen under a microscope in the presence of potassium hydroxide, which assists to determine the presence of fungi.
A patient suffered from athlete's foot for four years. The patients toe nails had became whitening, thickening and cracking due to the infection. […] The patient was reported to experienced pain due to the thickening and cracking of the toe nails the swelling of the skin. […]

CC(C)[C@H](N)C(=O)OCCOCn1cnc2c(=O)[nH]c(N)nc21 [Valtrex, L-valine, 2-[(2-amino-1,6-dihydro-6-oxo-9H-purin-9-yl)methoxy]ethyl ester, monhydrochloride]
laboratory test for fungal infections on the patient's toe nails and skin (after daily dosage of three grams divided into three times for seven days): no longer fungal infections | symptoms of the patient's athlete's foot at the end of treatment (patient, about 230 pounds, daily dosage of three grams divided into three times for seven days): completely disappear
